From US8835469B2 (Cadila Healthcare Limited, priority 2009, dated 2014)

Target: T1, glucokinase (GK) enzyme (Homo sapiens, UniProt P35557)
T1 sequence (P35557 1-465): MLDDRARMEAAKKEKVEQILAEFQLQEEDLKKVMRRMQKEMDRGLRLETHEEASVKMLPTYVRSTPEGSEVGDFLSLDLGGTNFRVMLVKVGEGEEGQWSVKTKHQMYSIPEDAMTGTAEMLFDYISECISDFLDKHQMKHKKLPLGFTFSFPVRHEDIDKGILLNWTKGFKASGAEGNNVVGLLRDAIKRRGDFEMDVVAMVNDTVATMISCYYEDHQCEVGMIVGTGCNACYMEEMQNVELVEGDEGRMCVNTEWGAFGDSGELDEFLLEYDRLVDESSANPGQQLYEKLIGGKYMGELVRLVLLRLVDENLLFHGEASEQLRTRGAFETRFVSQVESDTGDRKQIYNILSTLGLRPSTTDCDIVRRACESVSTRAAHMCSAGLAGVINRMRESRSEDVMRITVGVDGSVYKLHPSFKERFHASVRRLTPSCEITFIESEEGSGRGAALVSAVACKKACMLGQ
Experiment: In-vitro glucokinase (GK) activation assay (coupled with glucose-6-phosphate dehydrogenase, absorbance at 340)
Type: biochemical
Conditions: glucose 2.5 mM; for activity at 0.1 µM / activity at 1 µM / activity at 5 µM / activity at 10 µM: read-out: % of GK activity wrt DMSO
Experimental: The compound of the invention was incubated with glucokinase (GK) enzyme (0.2 units) for 10 minutes in assay buffer at 26° C. After incubation, addition of glucose-6-phosphate dehydrogenase (2.5 units), ATP (1 mM) and glucose (2.5 mM). Absorbance is measured at 340 nm for 15 minutes with 10 second interval using UV transparent plate in kinetic mode on Spectramax-190 at 30° C.

% of GK activity wrt DMSO (0.1 uM compound) [%] | % of GK activity wrt DMSO (1 uM compound) [%] | % of GK activity wrt DMSO (5 uM compound) [%] | % of GK activity wrt DMSO (10 uM compound) [%] | activity at 0.1 µM (0.1 uM compound) [%] | activity at 1 µM (1 uM compound) [%] | activity at 5 µM (5 uM compound) [%] | activity at 10 µM (10 uM compound) [%] | Compound
238.3 | 315.1 | 318.4 | 325.6 |  |  |  |  | (S)-3-(4-(5-methyl-1,3,4-oxadiazol-2-yl)phenoxy)-5-((2-oxopyrrolidin-3-yl)oxy)-N-(thiazol-2-yl)benzamide [Example 70]
 |  |  |  | 131 | 248 | 336 | 338 | CC(C)Cc1nnc(-c2ccc(Oc3cc(OC4CCN(C)C4=O)cc(C(=O)Nc4nccs4)c3)cc2)o1 (stereo not drawn) [Example 28, 3-(4-(5-Isobutyl-1,3,4-oxadiazol-2-yl)phenoxy)-5-((1-methyl-2-oxopyrrolidin-3-yl)oxy)-N-(thiazol-2-yl)benzamide]
 |  |  |  | 125 | 201 | 253 | 280 | Cc1nnc(-c2ccc(Oc3cc(OC4CCN(C(C)C)C4=O)cc(C(=O)Nc4nccs4)c3)cc2)o1 (stereo not drawn) [Example 18, 3((1-Isopropyl-2-oxopyrrolidin-3-yl)oxy)-5-(4-(5-methyl-1,3,4-oxadiazol-2-yl)phenoxy)-N-(thiazol-2-yl)benzamide]
 |  |  |  | 126 | 249 | 370 | 386 | Cc1csc(NC(=O)c2cc(Oc3ccc(-c4nnc(CC(C)C)o4)cc3)cc(OC3CCN(C)C3=O)c2)n1 (stereo not drawn) [Example 30, 3-(4-(5-Isobutyl-1,3,4-oxadiazol-2-yl)phenoxy)-5-((1-methyl-2-oxopyrrolidin-3-yl)oxy)-N-(4-methylthiazol-2-yl)benzamide]
 |  |  |  | 130 | 204 | 232 | 228 | Cc1nnc(-c2cccc(Oc3cc(OC4CCN(C)C4=O)cc(C(=O)Nc4nccs4)c3)c2)o1 (stereo not drawn) [Example 10, 3-(3-(5-Methyl-1,3,4-oxadiazol-2-yl)phenoxy)-5-((1-methyl-2-oxopyrrolidin-3-yl)oxy)-N-(thiazol-2-yl)benzamide]
 |  |  |  | 95.5 | 126 | 206 | 237 | Cc1nnc(-c2ccc(Oc3cc(OC4CCN(C)C4=O)cc(C(=O)Nc4ncc(C(=O)O)s4)c3)cc2)o1 (stereo not drawn) [Example 15, 2-(3-(4-(5-Methyl-1,3,4-oxadiazol-2-yl)phenoxy)-5-((1-methyl-2-oxopyrrolidin-3-yl)oxy)benzamido)thiazole-5-carboxylic acid]
 |  |  |  | 114 | 208 | 305 | 282 | Cc1csc(NC(=O)c2cc(Oc3ccc(-c4nnc(C)o4)cc3)cc(OC3CCN(C4CC4)C3=O)c2)n1 (stereo not drawn) [Example 19, 3((1-Cyclopropyl-2-oxopyrrolidin-3-yl)oxy)-5-(4-(5-methyl-1,3,4-oxadiazol-2-yl)phenoxy)-N-(4-methylthiazol-2-yl)benzamide]
 |  |  |  | 168 | 292 | 345 | 346 | Cc1nnc(-c2ccc(Oc3cc(OC4CCN(C)C4=O)cc(C(=O)Nc4cnccn4)c3)cc2)o1 (stereo not drawn) [Example 9, 3-(4-(5-Methyl-1,3,4-oxadiazol-2-yl)phenoxy)-5-((1-methyl-2-oxopyrrolidin-3-yl)oxy)-N-(pyrazin-2-yl)benzamide]
 |  |  |  | 150 | 205 | 252 | 256 | Cc1nnc(-c2ccc(Oc3cc(OC4CCN(C)C4=O)cc(C(=O)Nc4ncc(Br)s4)c3)cc2)o1 (stereo not drawn) [Example 38, N-(5-Bromothiazol-2-yl)-3-(4-(5-methyl-1,3,4-oxadiazol-2-yl)phenoxy)-5-((1-methyl-2-oxopyrrolidin-3-yl)oxy)benzamide]
 |  |  |  | 134 | 195 | 218 | 235 | Cc1nnc(-c2ccc(Oc3cc(OC4CCN(C)C4=O)cc(C(=O)Nc4nnc(C5CC5)s4)c3)cc2)o1 (stereo not drawn) [Example 8, N-(5-Cyclopropyl-1,3,4-thiadiazol-2-yl)-3-(4-(5-methyl-1,3,4-oxadiazol-2-yl)phenoxy)-5-((1-methyl-2-oxopyrrolidin-3-yl)oxy)benzamide]
 |  |  |  | 187 | 304 | 366 | 382 | CN1CCC(Oc2cc(Oc3ccc(-c4nnc(C5CC5)o4)cc3)cc(C(=O)Nc3nccs3)c2)C1=O (stereo not drawn) [Example 32, 3-(4-(5-Cyclopropyl-1,3,4-oxadiazol-2-yl)phenoxy)-5-((1-methyl-2-oxopyrrolidin-3-yl)oxy)-N-(thiazol-2-yl)benzamide]
 |  |  |  | 177 | 262 | 355 | 365 | CCc1nnc(-c2ccc(Oc3cc(OC4CCN(C)C4=O)cc(C(=O)Nc4nc(C)cs4)c3)cc2)o1 (stereo not drawn) [Example 27, 3-(4-(5-Ethyl-1,3,4-oxadiazol-2-yl)phenoxy)-5-((1-methyl-2-oxopyrrolidin-3-yl)oxy)-N-(4-methylthiazol-2-yl)benzamide]
 |  |  |  | 181 | 322 | 382 | 366 | CCN1CCC(Oc2cc(Oc3ccc(-c4nnc(C)o4)cc3)cc(C(=O)Nc3nccs3)c2)C1=O (stereo not drawn) [Example 35, 3((1-Ethyl-2-oxopyrrolidin-3-yl)oxy)-5-(4-(5-methyl-1,3,4-oxadiazol-2-yl)phenoxy)-N-(thiazol-2-yl)benzamide]
 |  |  |  | 271 | 298 | 288 | 267 | Cc1nnc(-c2ccc(Oc3cc(OC4CCN(C)C4=O)cc(C(=O)Nc4nc5ccccc5s4)c3)cc2)o1 (stereo not drawn) [Example 14, N-(Benzo[d]thiazol-2-yl)-3-(4-(5-methyl-1,3,4-oxadiazol-2-yl)phenoxy)-5-((1-methyl-2-oxopyrrolidin-3-yl)oxy)benzamide]
 |  |  |  | 114 | 159 | 287 | 329 | Cc1nnc(-c2ccc(Oc3cc(OC4CCN(C)C4=O)cc(C(=O)Nc4nc(CCN5CCOCC5=O)cs4)c3)cc2)o1 (stereo not drawn) [Example 5, 3-(4-(5-Methyl-1,3,4-oxadiazol-2-yl)phenoxy)-5-((1-methyl-2-oxopyrrolidin-3-yl)oxy)-N-(4-(2-(3-oxomorpholino)ethyl)thiazol-2-yl)benzamide]
 |  |  |  | 121 | 188 | 208 | 196 | Cc1nnc(-c2ccc(Oc3cc(OC4CCN(C5CC5)C4=O)cc(C(=O)Nc4ncc(C)s4)c3)cc2)o1 (stereo not drawn) [Example 20, 3((1-Cyclopropyl-2-oxopyrrolidin-3-yl)oxy)-5-(4-(5-methyl-1,3,4-oxadiazol-2-yl)phenoxy)-N-(5-methylthiazol-2-yl)benzamide]
 |  |  |  | 151 | 179 | 215 | 262 | Cc1nnc(-c2ccc(Oc3cc(OC4CCN(C)C4=O)cc(C(=O)Nc4ncccc4O)c3)cc2)o1 (stereo not drawn) [Example 39, N-(3-hydroxypyridin-2-yl)-3-(4-(5-methyl-1,3,4-oxadiazol-2-yl)phenoxy)-5-((1-methyl-2-oxopyrrolidin-3-yl)oxy)benzamide]
 |  |  |  | 164 | 314 | 356 | 347 | Cc1nc(-c2ccc(Oc3cc(OC4CCN(C)C4=O)cc(C(=O)Nc4nccs4)c3)cc2)no1 (stereo not drawn) [Example 7, 3-(4-(5-Methyl-1,2,4-oxadiazol-3-yl)phenoxy)-5-((1-methyl-2-oxopyrrolidin-3-yl)oxy)-N-(thiazol-2-yl)benzamide]
 |  |  |  | 109 | 205 | 339 | 357 | CCOC(=O)c1csc(NC(=O)c2cc(Oc3ccc(-c4nnc(C)o4)cc3)cc(OC3CCN(C)C3=O)c2)n1 (stereo not drawn) [Example 26, Ethyl 2-(3-(4-(5-methyl-1,3,4-oxadiazol-2-yl)phenoxy)-5-((1-methyl-2-oxopyrrolidin-3-yl)oxy)benzamido)thiazole-4-carboxylate]
 |  |  |  | 133 | 177 | 254 | 225 | Cc1nnc(-c2ccc(Oc3cc(OC4CCN(C5CCCCC5)C4=O)cc(C(=O)Nc4nccs4)c3)cc2)o1 (stereo not drawn) [Example 36, 3((1-Cyclohexyl-2-oxopyrrolidin-3-yl)oxy)-5-(4-(5-methyl-1,3,4-oxadiazol-2-yl)phenoxy)-N-(thiazol-2-yl)benzamide]
 |  |  |  | 167 | 268 | 335 | 347 | CCc1nnc(-c2ccc(Oc3cc(OC4CCN(C)C4=O)cc(C(=O)Nc4nccs4)c3)cc2)o1 (stereo not drawn) [Example 29, 3-(4-(5-Ethyl-1,3,4-oxadiazol-2-yl)phenoxy)-5-((1-methyl-2-oxopyrrolidin-3-yl)oxy)-N-(thiazol-2-yl)benzamide]
